Results published in patent publication US20040137436A1, “Method for measuring drug resistance” (priority 2000, published 2004).
Where two headings read alike, the source gives them in different places.

Tested on: HIV-1
Type: cell-based
Conditions: for Geometric Mean Phenotype: fold change in IC50 vs wild type; for Average Phenotype (log): log fold resistance
[1] = RT codon 41 ANY, 184 ANY, 215 ANY
[2] = RT codon 41 WT, 184 V/I, 215 F/Y
[3] = RT codon 41 WT, 184 V/I, 215 WT
[4] = RT codon 41 WT, 184 WT, 215 F/Y

For `Cc1cn([C@H]2C[C@H](N=[N+]=[N-])[C@@H](CO)O2)c(=O)[nH]c1=O` [AZT, zidovudine], the “effect of inclusion of the 184V mutation on magnitude of AZT resistance” value (184V together with AZT resistance mutations, each cluster (FIG. 7)) was “substantial reduction”, the “Geometric Mean Phenotype” value [1] was 3.9 fold and the “Geometric Mean Phenotype” value (RT codon 41 L, 184 WT, 215 F/Y) was 27.7 fold. For the same compound, the “Geometric Mean Phenotype” value (RT codon 41 L, 184 WT, 215 WT) was 1.7 fold, the “Geometric Mean Phenotype” value [2] was 6.2 fold and the “Geometric Mean Phenotype” value [3] was 1.3 fold. For the same compound, the “Geometric Mean Phenotype” value [4] was 13.4 fold, the “Geometric Mean Phenotype” value (RT codon 41 WT, 184 WT, 215 WT) was 1.3 fold and the “mean fold resistance, increase” value (genetic clusters with multiple mutations conferring AZT resistance (FIG. 7)) was roughly 100 fold. For the same compound, the “Average Phenotype (log)” value [1] was 0.59, the “Average Phenotype (log)” value (RT codon 41 L, 184 WT, 215 F/Y) was 1.44 and the “Average Phenotype (log)” value (RT codon 41 L, 184 WT, 215 WT) was 0.24. For the same compound, the “Average Phenotype (log)” value [2] was 0.79, the “Average Phenotype (log)” value [3] was 0.10 and the “Average Phenotype (log)” value [4] was 1.13. The “Average Phenotype (log)” value (RT codon 41 WT, 184 WT, 215 WT) was 0.12 and the “susceptibility profile of genetic cluster” value (virus harbouring the 184V mutation (FIG. 7)) was “slightly reduced level of susceptibility”.
